≈ marks a conversion by molar mass, not a printed value. One block for each molecule: values may come before it.
What was measured:
Experiment in all cases: ≥ marks a high value that may be exact or a test limit, other limits are often not marked, values filed in µg/mL are converted to µM
[1] = system: Escherichia coli 078
[2] = system: Salmonella enterica subsp. enterica serovar Typhimurium C77-31
[3] = system: Staphylococcus aureus ATCC 25923
[4] = system: Salmonella enterica subsp. enterica serovar Pullorum ATCC 7913
[5] = system: Pseudomonas aeruginosa ATCC 27853
[6] = system: Staphylococcus epidermidis ATCC 12228
[7] = system: Escherichia coli UB1005
[8] = system: Streptococcus thermophilus YM-C
[9] = system: Staphylococcus aureus ATCC 29213
[10] = system: Streptococcus agalactiae CICC 10465
[11] = system: Salmonella enterica subsp. enterica serovar Typhimurium ATCC 14028
[12] = system: Lacticaseibacillus rhamnosus 7469
[13] = system: Streptococcus agalactiae
[14] = system: Escherichia coli ATCC 25922
[15] = system: Enterococcus faecalis PCM 2673
[16] = system: Candida albicans ATCC 10231
[17] = system: Pseudomonas aeruginosa ATCC 9027
[18] = system: Klebsiella pneumoniae ATCC 13883
[19] = system: Staphylococcus aureus USA 300 LAC
[20] = system: Escherichia coli NBRC 3972
[21] = system: Staphylococcus epidermidis NBRC 12993
[22] = system: Micrococcus luteus NBRC 3333
[23] = system: Aspergillus oryzae NBRC 100959
[24] = system: Candida viswanathii NBRC 10321
[25] = system: Pseudomonas aeruginosa CCARM 2095
[26] = system: Staphylococcus aureus KCTC 1621
[27] = system: Bacillus subtilis KCTC 3068
[28] = system: Salmonella typhimurium CCARM 8009
[29] = system: Enterococcus faecalis KCTC 2011
[30] = system: Salmonella typhimurium KCTC 1926
[31] = system: Escherichia coli CCARM 1229
[32] = system: Escherichia coli KCTC 1682
[33] = system: Acinetobacter baumannii CCARM 12035
[34] = system: Pseudomonas aeruginosa KCTC 1637

MIC [1]: 4 µM (≈ 7.74 µg/mL)
MIC [2]: 4 µM (≈ 7.74 µg/mL)
MIC [3]: 8 µM (≈ 15.5 µg/mL)
MIC [4]: 8 µM (≈ 15.5 µg/mL)
MIC [5]: 4 µM (≈ 7.74 µg/mL)
MIC [6]: 4 µM (≈ 7.74 µg/mL)
MIC [7]: 8 µM (≈ 15.5 µg/mL)
MIC [8]: ≥ 64 µM
MIC [9]: 4 µM (≈ 7.74 µg/mL)
MIC [10]: 2 µM (≈ 3.87 µg/mL)
MIC [11]: 4 µM (≈ 7.74 µg/mL)
MIC [12]: ≥ 32 µM
MIC [13]: 5.66 µM (≈ 10.9 µg/mL)
MIC [14]: 4 µM (≈ 7.74 µg/mL)
SMILES: CC[C@H](C)[C@H](NC(=O)[C@H](CC(C)C)NC(=O)[C@@H](NC(=O)[C@@H](N)CC(=O)O)[C@@H](C)CC)C(=O)N[C@H](C(=O)N[C@H](C(=O)NCC(=O)NCC(=O)N[C@@H](CCCCN)C(=O)N[C@@H](CCC(N)=O)C(=O)N[C@@H](CCCN=C(N)N)C(=O)N[C@@H](CCCCN)C(=O)N[C@@H](CCCCN)C(=O)N[C@@H](CCCN=C(N)N)C(=O)N[C@@H](CCCN=C(N)N)C(=O)N[C@@H](CCCN=C(N)N)C(N)=O)C(C)C)[C@@H](C)CC [DILIIVGGKQRKKRRR]

MIC [1]: ≥ 32 µM
MIC [2]: ≥ 64 µM
MIC [3]: > 64 µM
MIC [4]: 8 µM (≈ 13.9 µg/mL)
MIC [5]: > 64 µM
MIC [6]: 2 µM (≈ 3.47 µg/mL)
MIC [7]: 16 µM (≈ 27.8 µg/mL)
MIC [8]: ≥ 64 µM
MIC [9]: 2 µM (≈ 3.47 µg/mL)
MIC [10]: 2 µM (≈ 3.47 µg/mL)
MIC [11]: > 64 µM
MIC [12]: ≥ 64 µM
MIC [13]: 5.66 µM (≈ 9.82 µg/mL)
MIC [14]: 16 µM (≈ 27.8 µg/mL)
SMILES: CC[C@H](C)[C@H](NC(=O)[C@H](CC(C)C)NC(=O)[C@@H](NC(=O)[C@@H](N)CC(=O)O)[C@@H](C)CC)C(=O)N[C@H](C(=O)N[C@H](C(=O)NCC(=O)NCC(=O)N[C@@H](CCCN=C(N)N)C(=O)N[C@@H](CCCN=C(N)N)C(=O)N[C@@H](CCCN=C(N)N)C(=O)N[C@@H](CCCN=C(N)N)C(=O)N[C@@H](CCCN=C(N)N)C(=O)N[C@@H](CCCN=C(N)N)C(N)=O)C(C)C)[C@@H](C)CC [DILIIVGGRRRRRR]

MIC [15]: 22.5 µM (≈ 32 µg/mL)
MIC [3]: 22.5 µM (≈ 32 µg/mL)
MIC [16]: 22.5 µM (≈ 32 µg/mL)
MIC [14]: 11.2 µM (≈ 16 µg/mL)
MIC [17]: 45 µM (≈ 64 µg/mL)
SMILES: CC[C@H](C)[C@H](NC(=O)[C@H](CCCCN)NC(=O)[C@H](CCCCN)NC(=O)[C@@H](NC(=O)[C@@H](NC(=O)[C@H](CC(=O)O)NC(=O)[C@H](Cc1ccccc1)NC(=O)[C@H](CC(C)C)NC(=O)CN)[C@@H](C)CC)[C@@H](C)CC)C(=O)N[C@@H](C)C(=O)N[C@@H](C)C(=O)N[C@@H](CO)C(=O)N[C@@H](Cc1ccccc1)C(N)=O [GLFDIIKKIAASF]

MIC [18]: 8.8 µM (≈ 11.2 µg/mL)
MIC [19]: 4.38 µM (≈ 5.58 µg/mL)
MIC [14]: 12.5 µM (≈ 15.9 µg/mL)
SMILES: CC[C@H](C)[C@H](NC(=O)[C@H](CCCCN)NC(=O)[C@H](CCCN=C(N)N)NC(=O)[C@@H](N)CC(C)C)C(=O)N[C@@H](Cc1c[nH]c2ccccc12)C(=O)N[C@@H](Cc1c[nH]c2ccccc12)C(=O)N[C@@H](Cc1c[nH]c2ccccc12)C(=O)N[C@@H](Cc1c[nH]c2ccccc12)C(N)=O [LRKIWWWW]

MIC [20]: ≥ 411 µM
MIC [21]: 12.9 µM (≈ 25 µg/mL)
MIC [22]: 25.7 µM (≈ 50 µg/mL)
MIC [23]: 12.9 µM (≈ 25 µg/mL)
MIC [24]: 25.7 µM (≈ 50 µg/mL)
SMILES: CC[C@H](C)[C@H](NC(=O)[C@H](CCCCN)NC(=O)[C@@H](N)CCCN=C(N)N)C(=O)N[C@@H](CCCCN)C(=O)N[C@@H](CCCN=C(N)N)C(=O)N[C@@H](Cc1ccc(O)cc1)C(=O)N[C@@H](CC(C)C)C(=O)N[C@@H](CCCN=C(N)N)C(=O)N[C@@H](CCCN=C(N)N)C(=O)N[C@@H](CCSC)C(=O)N[C@H](C(=O)N[C@H](C(=O)N[C@H](C(=O)N[C@@H](Cc1c[nH]c2ccccc12)C(=O)O)[C@@H](C)CC)[C@@H](C)CC)[C@@H](C)CC [RKIKRYLRRMIIIW]

MIC [25]: 8 µM (≈ 20.6 µg/mL)
MIC [26]: 16 µM (≈ 41.3 µg/mL)
MIC [27]: 16 µM (≈ 41.3 µg/mL)
MIC [28]: 4 µM (≈ 10.3 µg/mL)
MIC [29]: ≥ 128 µM
MIC [30]: 2 µM (≈ 5.16 µg/mL)
MIC [31]: 2 µM (≈ 5.16 µg/mL)
MIC [32]: 1 µM (≈ 2.58 µg/mL)
MIC [33]: 8 µM (≈ 20.6 µg/mL)
MIC [34]: 2 µM (≈ 5.16 µg/mL)
SMILES: CC[C@H](C)[C@H](NC(=O)CNC(=O)[C@H](CC(=O)O)NC(=O)[C@H](CCCN=C(N)N)NC(=O)[C@@H](NC(=O)[C@H](CC(N)=O)NC(=O)[C@H](CCCN=C(N)N)NC(=O)CNC(=O)[C@@H](NC(=O)[C@H](CCCCN)NC(=O)[C@H](CCC(=O)O)NC(=O)[C@@H](NC(=O)[C@H](CCCCN)NC(=O)[C@H](CCCCN)NC(=O)[C@H](C)NC(=O)[C@@H](NC(=O)[C@H](CCCCN)NC(=O)[C@H](Cc1c[nH]c2ccccc12)NC(=O)[C@@H](N)CCCN=C(N)N)[C@@H](C)CC)[C@@H](C)CC)C(C)C)C(C)C)C(=O)N[C@H](C(=O)N[C@@H](CCCCN)C(=O)N[C@@H](C)C(N)=O)[C@@H](C)CC [RWKIAKKIEKVGRNVRDGIIKA]

MIC [25]: 2 µM (≈ 5.31 µg/mL)
MIC [26]: 8 µM (≈ 21.2 µg/mL)
MIC [27]: 8 µM (≈ 21.2 µg/mL)
MIC [28]: 2 µM (≈ 5.31 µg/mL)
MIC [29]: ≥ 64 µM
MIC [30]: 2 µM (≈ 5.31 µg/mL)
MIC [31]: 4 µM (≈ 10.6 µg/mL)
MIC [32]: 1 µM (≈ 2.65 µg/mL)
MIC [33]: 2 µM (≈ 5.31 µg/mL)
MIC [34]: 2 µM (≈ 5.31 µg/mL)
SMILES: CC[C@H](C)[C@H](NC(=O)CNC(=O)[C@H](CC(=O)O)NC(=O)[C@H](CCCN=C(N)N)NC(=O)[C@@H](NC(=O)[C@H](CC(N)=O)NC(=O)[C@H](CCCN=C(N)N)NC(=O)CNC(=O)[C@@H](NC(=O)[C@H](CCCCN)NC(=O)[C@H](CCC(=O)O)NC(=O)[C@@H](NC(=O)[C@H](CCCCN)NC(=O)[C@H](CCCCN)NC(=O)[C@H](Cc1ccccc1)NC(=O)[C@@H](NC(=O)[C@H](CCCCN)NC(=O)[C@H](Cc1c[nH]c2ccccc12)NC(=O)[C@@H](N)CCCN=C(N)N)[C@@H](C)CC)[C@@H](C)CC)C(C)C)C(C)C)C(=O)N[C@H](C(=O)N[C@@H](CCCCN)C(=O)N[C@@H](C)C(N)=O)[C@@H](C)CC [RWKIFKKIEKVGRNVRDGIIKA]

MIC [18]: 25 µM (≈ 31.8 µg/mL)
MIC [19]: 4.38 µM (≈ 5.58 µg/mL)
MIC [14]: 17.7 µM (≈ 22.5 µg/mL)
SMILES: CC[C@H](C)[C@H](NC(=O)[C@H](CCCCN)NC(=O)[C@H](CCCN=C(N)N)NC(=O)[C@H](CC(C)C)NC(=O)[C@@H](N)Cc1c[nH]c2ccccc12)C(=O)N[C@@H](Cc1c[nH]c2ccccc12)C(=O)N[C@@H](Cc1c[nH]c2ccccc12)C(=O)N[C@@H](Cc1c[nH]c2ccccc12)C(N)=O [WLRKIWWW]

— DBAASP
